Source: patent US7919481B2, “Inositol pyrophosphates, and methods of use thereof” (NormOxys, Inc., priority 2002, dated 2011)
Where “and” joins values, the source holds several entries; their conditions need not be identical. Identical values can stand only once. Entries after “also recorded” stand apart in the source; their conditions may differ. Blank lines part the entries; values can stand above or below the compound they belong to.

How the values were obtained:
pig whole blood = assay: In vitro P50 in whole blood after incubation with effector; format: cell-based; conditions: effector 60 mM
Experimental: (§1) As usual, pH's for the compound-solutions were adjusted to ˜7.0, osmolarities for both solutions were determined (325-373 mOsM) prior to effectors, and whole blood volumes at 1:1 ratios were incubated.

mouse whole blood = assay: as above; format: cell-based; conditions: effector 60 mM
Experimental: as §1

human whole blood = assay: as above; format: cell-based; conditions: effector 60 mM
Experimental: as §1

circulating RBC [1] = assay: Oral administration in drinking water, P50 of circulating RBC; format: in vivo, C57BL/6 mice; conditions: for P50 10 d %: P50 shift on day 10, single mice
C57BL/6 mice [2] = assay: Tolerability of intraperitoneal injection in mice; format: in vivo
circulating RBC [3] = assay: P50 shift of circulating RBC after (intraperitoneal) injection in mice; conditions: for P50 Shift % 2 h, Mean +/− SD / P50 Shift % 24 h, Mean +/− SD: 5 animals; for P50 Shift % 2 h / P50 Shift % 24 h: single animals
RBC [4] = assay: Blood counts of orally treated mice; format: in vivo, C57BL/6 mice; conditions: for RBC × 10^6/mm3: day 7, single mice, oral 27 mM for 4 days
Excerpt: Blood from mice, having ingested kf111 or IHP in water (for 4 days) or water only was collected on day 0, 7 and 11, in order to assess any differences in the blood count (and the amount of erythropoietin in the sera) of treated and control mice. […] Erythropoietin assays in all mice sera will be reported soon.

[5] = Blood counts and serum electrolytes of iv treated piglets; format: in vivo, piglet
Excerpt: Blood from the 2 piglets, having received kf111 (1 g/kg body weight) was collected before injection, 2 hrs after, and daily over a period of 14 days after injection, in order to assess any differences in the blood counts of treated and non treated piglets. The following conclusions for piglets having received 1 g kf111 per kg body weight can be drawn: • 1. […] Increasing numbers of reticulocytes were counted in blood samples of the injected animals taken 5-14 days after injection (up to 3.0% on day 14). • 4.
Blood was taken from the heart of the dead animals for the determination of blood counts as well as the amount of sodium, potassium and calcium in the sera. All numbers of blood cells (hematocrit, white blood cells etc.) were halved. The amount of potassium and calcium was normal, while sodium was doubled (before injection: 120-140 mmol/L; after injection: 245 mmol/L). Apparently, the large amount of sodium in kf111 (6 Na^+/molecule) caused the death of the animals. It appears that up to 1 g kf111 per kg body weight can be injected iv, (if injected slowly) without harmful effects for the animals. […] The piglets were thirsty after the treatment. *a second piglets was injected with kf111 at this concentration, after 2 piglets had died after iv injection of 1.2 g kf111 (or even more) per kg body weight. • 2. Higher amounts of kf111, injected via iv, killed the animals. • 3. A 1 g kf111 per kg body weight—injection is necessary to cause a significant right shift of the P50 value (up to 20%). • 4. […] In piglets having received 1 g of kf111/kg body weight, a tendency to the decrease in hematocrit was observed. • 6. […] The number of reticulocytes decreased slightly 24 to 72 hrs after injection (from 1.5% to 0.5%). Starting with day 3 after injection of the allosteric effector, the number of reticulocytes increased by about 3% for a period of 14 days.

whole blood = assay: In vitro incubation of whole blood of three species, summary statements; format: cell-based, human, mouse and pig
Experimental: as §1

piglets = assay: Tolerability / lethality of iv injection in piglets; format: in vivo, piglet
Experimental: (§2) An in vivo-experiment was performed on one 8 week-old normal piglet (body weight: 17 kg). The piglet was anaesthesized with 5% Isoflurane, 0.7 L/min N2O and 2.0 L/min O2 for 20-30 minutes, when kf111 was injected, or blood was taken from the ear vein, respectively. The compound injected iv at a concentration of 27 g kf111/100 ml water (volume injected: 63 ml, pH 6.5, containing 17 g kf111=1 g/1 kg body weight) was not harmful to the animal, when injected into the piglet's ear vein over at least 10 minutes.
(§3) Iv injection of 1 g kf111/kg body weight caused a significant right shift of the P50-value (up to 20%) in porcine RBCs. An almost saturated kf111 solution, pH 6.7, was injected intravenously into two piglets (both of ˜18 kg body weight) (27 g kf111/100 ml=1.5 g/kg body weight) over 20 minutes.

[6] = Toxicity, general statements on the biological experiments; format: in vivo
porcine RBCs = assay: Intravenous injection in piglets, P50 of blood; format: in vivo, piglet; conditions: iv injection of 1 g/kg body weight; maximum
Experimental: as §2, §3

RBC [7] = assay: Blood counts of orally treated mice; format: in vivo, C57BL/6 mice; conditions: day 10, single mice; oral 27 mM for 4 days
C57BL/6 mice [8] = assay: Tolerability of oral administration; format: in vivo; conditions: 27 mM in drinking water, 4 days
Experimental: The sodium salt of the tri-pyrophosphate derivative of IHP (kf111) was dissolved in drinking (not deionized) water at a 20 g/L-concentration (=27 mM) and offered for drinking ad libitum. As in all experiments performed before, pH was adjusted to ˜7.0.
Twelve C57BL/6 mice drank kf111 over 4 days ([…]). Three control mice drank either pure water, or a solution of IHP (inositol hexaphosphate) at the same concentration and pH as kf111 (4 mice). […] Blood was collected from the tail vein of the 19 C57BL/6 mice on day 0 (before treatment started), 1, 2, 4, 6, 7, 8, 10, 11 and 12, in order to measure P50 values.

[9] = constant concentration 22 mM, human serum/1-octanol; cited from earlier work
human RBCs = conditions: IHP encapsulated in human RBCs by continuous-flow electroporation; cited from earlier work
[10] = dead piglets after lethal iv dose

SMILES: O=P1([O-])OP(=O)([O-])O[C@H]2[C@H](O1)[C@@H]1OP(=O)([O-])OP(=O)([O-])O[C@@H]1[C@H]1OP(=O)([O-])OP(=O)([O-])O[C@H]21.[Na+].[Na+].[Na+].[Na+].[Na+].[Na+] [kf111, Hexasodium Salt of Myo-inositol 1,6:2,3:4,5-Tripyrophosphate]
- P50 Increase % (pig whole blood; 1:1): 40%
- P50 mm Hg (pig whole blood; 1:1, control 32.2): 45.2 mm Hg
- P50 Increase % (mouse whole blood; 1:1): 29%
- P50 mm Hg (mouse whole blood; 1:1, control 36.7): 47.4 mm Hg
- P50 Increase % (human whole blood; 1:1): 39%
- P50 mm Hg (human whole blood; 1:1, control 22.1): 30.8 mm Hg
- P50 10 d % (circulating RBC [1]; oral 27 mM for 4 days): 10% and 6% and 12% and 16% and 8% and 11% and 9%
- right shift of P50 (circulating RBC [1]; oral, 20 g/L (27 mM) in drinking water over 4 days, maximum): up to 31%
- tolerability in mice (C57BL/6 mice [2]; concentration of (up to) 120 mM): well tolerated
- tolerability in mice (C57BL/6 mice [2]; ip, concentrations up to 150 mM): well tolerated
- right shift of the ODC of circulating RBC, % of the basal value (circulating RBC [3]; after ip injection): 31%
- P50 Shift % 2 h, Mean +/− SD (circulating RBC [3]; ip 45 mM): 11.8 +/− 1.16%
- P50 Shift % 2 h (circulating RBC [3]; ip 45 mM): 13% (2×) and 10% and 12% and 11%
- P50 Shift % 24 h, Mean +/− SD (circulating RBC [3]; ip 45 mM): 13.6 +/− 1.02%
- P50 Shift % 24 h (circulating RBC [3]; ip 45 mM): 14% (2×) and 12% and 13% and 15%
- P50 Shift % 2 h, Mean +/− SD (circulating RBC [3]; ip 60 mM): 16.9 +/− 3.48%
- P50 Shift % 2 h (circulating RBC [3]; ip 60 mM): 12% and 14% and 17% and 21% and 20.5%
- P50 Shift % 24 h, Mean +/− SD (circulating RBC [3]; ip 60 mM): 17.2 +/− 2.1%
- P50 Shift % 24 h (circulating RBC [3]; ip 60 mM): 14% and 16% and 17% and 20% and 19%
- P50 Shift % 2 h, Mean +/− SD (circulating RBC [3]; ip 120 mM): 26.0 +/− 2.28%
- P50 Shift % 2 h (circulating RBC [3]; ip 120 mM): 28% and 29% and 24% and 26% and 23%
- P50 Shift % 24 h, Mean +/− SD (circulating RBC [3]; ip 120 mM): 24.8 +/− 2.7%
- P50 Shift % 24 h (circulating RBC [3]; ip 120 mM): 28% (2×) and 22% (2×) and 24%
- P50 Shift % 2 h, Mean +/− SD (circulating RBC [3]; ip 150 mM): 27.0 +/− 1.78%
- P50 Shift % 2 h (circulating RBC [3]; ip 150 mM): 26% (2×) and 28% and 30% and 25%
- P50 Shift % 24 h, Mean +/− SD (circulating RBC [3]; ip 150 mM): 25.8 +/− 2.78%
- P50 Shift % 24 h (circulating RBC [3]; ip 150 mM): 25% and 26% and 31% and 24% and 23%
- RBC × 10^6/mm3 (RBC [4]): 6.60 × 10^6/mm3 and 5.73 × 10^6/mm3 and 6.35 × 10^6/mm3 and 5.64 × 10^6/mm3 and 5.45 × 10^6/mm3 and 8.76 × 10^6/mm3 and 7.70 × 10^6/mm3 and 6.54 × 10^6/mm3
- number of RBC (RBC [4]; mice having ingested the compound for 4 days): reduced significantly
- number of white blood cells (RBC [4]; treated vs control groups): no major differences
- number of other cells such as white blood cells ([5]; 1 g/kg iv): no major differences
- reticulocytes ([5]; 1 g/kg iv, day 14 (samples 5-14 days after injection), maximum): up to 3.0%
- reticulocytes after decrease ([5]; 1 g/kg iv, first 3 days (24 to 72 hrs) after injection): 0.5%
- hematocrit and number of RBC ([5]; 1 g/kg iv, first days after injection): slight decrease
- increase of the number of reticulocytes ([5]; 1 g/kg iv, starting with day 3, for a period of 14 days): about 3%
- amount of potassium and calcium in sera [5, 10]: normal
- numbers of blood cells (hematocrit, white blood cells etc.) [5, 10]: halved
- sodium in sera after injection ([5]; dead piglets, before injection 120-140 mmol/L): 245 mmol/L
- lysis of RBCs (whole blood; in vitro incubation with whole blood): never occurred; also recorded: no lysis of RBCs was observed
- right shift in the Hb-O2 dissociation curve, all blood samples (whole blood; whole blood of human, mouse and pig, 60 mM): up to 40%
- harmfulness of iv injection (piglets; 1 g/kg body weight, injected slowly (at least 10 min)): not harmful
- outcome of iv injection of almost saturated solution (piglets; 27 g/100 ml, 1.5 g/kg planned over 20 minutes, two piglets): Both piglets died
- dose that can be injected iv without harmful effects (piglets; if injected slowly): up to 1 g kf111 per kg body weight
- dose received at which piglets died (piglets; iv, saturated solution): < 1.3 g/kg body weight
- toxicity ([6]; even in a concentration of 160 mM): no toxicity
- toxicity / tolerability ([6]; general statement): no toxicity and excellent tolerability
- right shift of the P50-value (porcine RBCs): up to 20%
- RBC × 10^6/mm3 (RBC [7]): 9.35 × 10^6/mm3 and 8.60 × 10^6/mm3 and 8.95 × 10^6/mm3 and 8.88 × 10^6/mm3 and 8.70 × 10^6/mm3 and 8.73 × 10^6/mm3 and 7.65 × 10^6/mm3 and 7.80 × 10^6/mm3
- harmfulness when applied orally (C57BL/6 mice [8]): not harmful

- RBC × 10^6/mm3 (RBC [4]): 9.6 × 10^6/mm3
- RBC × 10^6/mm3 (RBC [7]): 10.77 × 10^6/mm3
SMILES: O=P(O)(O)O[C@H]1[C@H](OP(=O)(O)O)[C@@H](OP(=O)(O)O)[C@H](OP(=O)(O)O)[C@@H](OP(=O)(O)O)[C@H]1OP(=O)(O)O [IHP, inositol hexaphosphate, reference compound]
- P50 7 d % (circulating RBC [1]; P50 shift on day 7, single mice, oral 27 mM for 4 days): 3%
- P50 10 d % (circulating RBC [1]; oral 27 mM for 4 days): 0%
- shift of the ODC (circulating RBC [1]; oral in drinking water, same concentration as kf111): absence of shift
- equiv of ammonium ions required to reach Kos(in serum) of 1 [9]: 8 equiv
- P50 of IHP-modified RBCs (human RBCs): approximately 50 torr
